Assay [1] has as its target T1, THR beta-LBD (Homo sapiens, UniProt P10828).
T1 construct: THR beta-LBD (the final concentration is 0.5 nM) was added to the 384-well assay plate; purchased Invitrogen PV4686
T1 sequence (P10828 217-461 limits assumed): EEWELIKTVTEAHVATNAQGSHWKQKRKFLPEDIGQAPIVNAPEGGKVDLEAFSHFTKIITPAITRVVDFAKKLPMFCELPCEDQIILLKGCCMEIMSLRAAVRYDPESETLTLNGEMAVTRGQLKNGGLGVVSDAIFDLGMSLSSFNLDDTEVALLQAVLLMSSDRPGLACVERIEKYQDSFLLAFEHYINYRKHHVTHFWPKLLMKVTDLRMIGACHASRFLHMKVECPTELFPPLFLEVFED
As to the kind of experiment: THR-β Coactivator Peptide Recruitment Assay (LanthaScreen TR-FRET). The class given is biochemical. The note with it: TR-FRET coactivator recruitment, THR beta-LBD 0.5 nM; for EC50: read-out: THRβ EC50. As for the experimental part: (§1) A time-resolved FRET (TR-FRET) assay was used to test representative compounds of the application.
(§2) THR-β Coactivator Peptide Recruitment Assay were conducted by using Invitrogen's LanthaScreen™ TR-FRET Thyroid Receptor beta Assay Kit (Catalog no. PV4686). Binding of an agonist to the nuclear receptor causes a subsequent binding of a coactivator peptide, resulting in fluorescence energy transfer from the labelled nuclear receptor to the proximal coactivator peptide, which reflects the binding affinity of the agonist and the nuclear receptor. The assay was conducted by following the manufacturer's instructions. Briefly, THR beta-LBD (the final concentration is 0.5 nM) was added to the 384-well assay plate containing test compounds, followed by addition of Fluorescein-SRC2-2 coactivator peptide and terbium (Tb)-labeled anti-GST antibody. The final concentration of THR beta-LBD, Fluorescein-SRC2-2 coactivator peptide and terbium (Tb)-labeled anti-GST antibody is 0.5 nM, 0.1 nM and 2 nM, respectively. After a gentle mix and incubation at room temperature for 2 h, the signal was read on the EnVision Multilabel Plate Reader at wavelengths of 520 nm and 495 nm. TR-FRET ratio was calculated by dividing the emission signal at 520 nm and the emission signal at 495 nm, and then was plotted against a sigmoidal dose response curve (four parameters, GraphPad™ Prism 8) to determine the EC50 value.
(In TR-FRET formats the signal depends on donor and acceptor labels being close together.)

In assay [2] the target is T2, THR alpha-LBD (Homo sapiens, UniProt P10827).
T2 construct: except that THR alpha-LBD of a final concentration 0.25 nM was used; purchased Invitrogen PV4687
T2 sequence (P10827 163-410 isoform P10827-2 limits assumed, other chains not shown): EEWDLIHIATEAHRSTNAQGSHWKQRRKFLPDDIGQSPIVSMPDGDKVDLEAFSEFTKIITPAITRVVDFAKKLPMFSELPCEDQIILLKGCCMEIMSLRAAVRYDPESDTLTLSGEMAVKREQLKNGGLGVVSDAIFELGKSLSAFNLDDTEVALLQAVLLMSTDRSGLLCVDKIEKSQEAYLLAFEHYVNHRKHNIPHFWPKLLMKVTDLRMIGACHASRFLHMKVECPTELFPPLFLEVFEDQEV
Nature of the assay: THR-α Coactivator Peptide Recruitment Assay (LanthaScreen TR-FRET). The class given is biochemical. The note with it: TR-FRET coactivator recruitment, THR alpha-LBD 0.25 nM; for EC50: read-out: THRα EC50. As for the experimental part:
as §1, §2
THR-α Coactivator Peptide Recruitment Assay were conducted by using Invitrogen's LanthaScreen™ TR-FRET Thyroid Receptor alpha Assay Kit (Catalog no. PV4687), following the same method described above except that THR alpha-LBD of a final concentration 0.25 nM was used.

In the case of `O=c1[nH]c(=O)n(-c2cc(Cl)c(Oc3ccc(O)c(S(=O)(=O)NC4(CO)CC4)c3)c(Cl)c2)nc1C(F)F` [Compound 70, 5-(2,6-dichloro-4-(6-(difluoromethyl)-3,5-dioxo-4,5-dihydro-1,2,4-triazin-2(3H)-yl)phenoxy)-2-hydroxy-N-(1-(hydroxymethyl)cyclopropyl)benzenesulfonamide], in assay [1], the “THRβ Emax” value is reported as “B (75~90)” and the EC50 was 2 to 20 nM. In addition, in assay [2], the “THRα Emax” value is “B (40~85)” and the EC50 lay within 2 to 200 nM.

As to `O=c1[nH]c(=O)n(-c2cc(Cl)c(Oc3ccc(O)c(S(=O)(=O)NC4C[S+]([O-])C4)c3)c(Cl)c2)nc1C(F)F` (stereo not shown) [Compound 96, 5-[2,6-dichloro-4-[6-(difluoromethyl)-3,5-dioxo-1,2,4-triazin-2-yl]phenoxy]-2-hydroxy-N-(1-oxothietan-3-yl) benzenesulfonamide], in assay [1], the “THRβ Emax” value is “A (90~110)” and the EC50 was 20 to 100 nM. Moreover, in assay [2], the “THRα Emax” value is on record as “A (85~110)” and the EC50 lay in the range of 200 to 1000 nM.

Consider `N#C[C@H]1C[C@@H](NS(=O)(=O)c2cc(Oc3c(Cl)cc(-n4nc(C(F)F)c(=O)[nH]c4=O)cc3Cl)ncc2O)C1` [Compound 125, N-((1s,3s)-3-cyanocyclobutyl)-2-(2,6-dichloro-4-(6-(difluoromethyl)-3,5-dioxo-4,5-dihydro-1,2,4-triazin-2(3H)-yl)phenoxy)-5-hydroxypyridine-4-sulfonamide], for which, in assay [1], the “THRβ Emax” value was “B (75~90)” and the EC50 was 2 to 20 nM. Further, in assay [2], the “THRα Emax” value was “B (40~85)” and the EC50 was in the range of 200 to 1000 nM.

Consider `CC(C)NS(=O)(=O)c1cc(Oc2c(Cl)cc(-n3nc(C(F)F)c(=O)[nH]c3=O)cc2Cl)ncc1O` [Compound 110, 2-(2,6-dichloro-4-(6-(difluoromethyl)-3,5-dioxo-4,5-dihydro-1,2,4-triazin-2(3H)-yl)phenoxy)-5-hydroxy-N-isopropylpyridine-4-sulfonamide], for which, in assay [1], the “THRβ Emax” value is recorded as “A (90~110)” and the EC50 was less than 2 nM. Further, in assay [2], the “THRα Emax” value was “A (85~110)” and the EC50 lay within 2 to 200 nM.

As for `O=C(N1CCC1)C1(NS(=O)(=O)c2cc(Oc3c(Cl)cc(-n4nc(C(F)F)c(=O)[nH]c4=O)cc3Cl)ccc2O)CC1` [Compound 38, N-(1-(azetidine-1-carbonyl)cyclopropyl)-5-(2,6-dichloro-4-(6-(difluoromethyl)-3,5-dioxo-4,5-dihydro-1,2,4-triazin-2(3H)-yl)phenoxy)-2-hydroxybenzenesulfonamide], in assay [1], the “THRβ Emax” value is reported as “B (75~90)” and the EC50 lay in the range of 2 to 20 nM. Also, in assay [2], the “THRα Emax” value is recorded as “A (85~110)” and the EC50 fell in the range of 2 to 200 nM.

As to `N#Cc1nn(-c2cc(Cl)c(Oc3cc(S(=O)(=O)NC4CC4)c(O)cn3)c(Cl)c2)c(=O)[nH]c1=O` [Compound 114, N-cyclopropyl-2-(2,6-dichloro-4-(6-cyano-3,5-dioxo-4,5-dihydro-1,2,4-triazin-2(3H)-yl)phenoxy)-5-hydroxypyridine-4-sulfonamide], in assay [1], the “THRβ Emax” value is on record as “A (90~110)” and the EC50 was less than 2 nM. In assay [2], the “THRα Emax” value is “A (85~110)” and the EC50 was in the range of 2 to 200 nM.

Consider `CNC(=O)[C@H]1C[C@H](NS(=O)(=O)c2cc(Oc3c(Cl)cc(-n4nc(C(F)F)c(=O)[nH]c4=O)cc3Cl)ccc2O)C1` [Compound 61, (1r,3r)-3-((5-(2,6-dichloro-4-(6-(difluoromethyl)-3,5-dioxo-4,5-dihydro-1,2,4-triazin-2(3H)-yl)phenoxy)-2-hydroxyphenyl)sulfonamido)-N-methylcyclobutane-1-carboxamide], for which, in assay [1], the “THRβ Emax” value is reported as “B (75~90)” and the concentration for a half-maximal effect (EC50) was 2 to 20 nM. Moreover, in assay [2], the “THRα Emax” value is “B (40~85)” and the EC50 was greater than 1000 nM.

Take `CC(C)(C)NC(=O)c1cc(Oc2c(Cl)cc(-n3nc(C(F)(F)F)c(=O)[nH]c3=O)cc2Cl)ccc1O` [Compound 4, N-(tert-butyl)-5-(2,6-dichloro-4-(3,5-dioxo-6-(trifluoromethyl)-4,5-dihydro-1,2,4-triazin-2(3H)-yl)phenoxy)-2-hydroxybenzamide]: in assay [1], the “THRβ Emax” value was “A (90~110)” and the EC50 fell in the range of 20 to 100 nM. Besides, in assay [2], the “THRα Emax” value is given as “B (40~85)” and the EC50 lay in the range of 200 to 1000 nM.

As for `O=c1[nH]c(=O)n(-c2cc(Cl)c(Oc3ccc(O)c(S(=O)(=O)N4CC[C@@H](O)C4)c3)c(Cl)c2)nc1C(F)F` [Compound 76, (R)-2-(3,5-dichloro-4-(4-hydroxy-3-((3-hydroxypyrrolidin-1-yl)sulfonyl)phenoxy)phenyl)-6-(difluoromethyl)-1,2,4-triazine-3,5(2H,4H)-dione], in assay [1], the “THRβ Emax” value is “B (75~90)” and the EC50 is less than 2 nM. In assay [2], the “THRα Emax” value is on record as “A (85~110)” and the EC50 is 2 to 200 nM.

For the compound `O=c1[nH]c(=O)n(-c2cc(Cl)c(Cc3ccc(O)c(S(=O)(=O)NC4CS(=O)(=O)C4)c3)c(Cl)c2)nc1C(F)F` [Compound 152, 5-[[2,6-dichloro-4-[6-(difluoromethyl)-3,5-dioxo-1,2,4-triazin-2-yl]phenyl]methyl]-N-(1,1-dioxothietan-3-yl)-2-hydroxy-benzenesulfonamide], in assay [1], the “THRβ Emax” value was “A (90~110)” and the EC50 was less than 2 nM. In addition, in assay [2], the “THRα Emax” value is given as “A (85~110)” and the EC50 was less than 2 nM.

For the compound `O=c1[nH]c(=O)n(-c2cc(Cl)c(Oc3ccc(O)c(S(=O)(=O)N[C@H]4CC[C@@H](O)C4)c3)c(Cl)c2)nc1C(F)F` [Compound 67, 5-(2,6-dichloro-4-(6-(difluoromethyl)-3,5-dioxo-4,5-dihydro-1,2,4-triazin-2(3H)-yl)phenoxy)-2-hydroxy-N-((1S,3R)-3-hydroxycyclopentyl)benzenesulfonamide], in assay [1], the “THRβ Emax” value is recorded as “B (75~90)” and the EC50 fell in the range of 2 to 20 nM. In assay [2], the “THRα Emax” value is recorded as “B (40~85)” and the EC50 was 2 to 200 nM.

As for `O=c1[nH]c(=O)n(-c2cc(Cl)c(Oc3ccc(O)c(S(=O)(=O)NC4CCC4)c3)c(Cl)c2)nc1C(F)F` [Compound 12, N-cyclobutyl-5-[2,6-dichloro-4-[6-(difluoromethyl)-3,5-dioxo-1,2,4-triazin-2-yl]phenoxy]-2-hydroxy-benzenesulfonamide], in assay [1], the “THRβ Emax” value is listed as “A (90~110)” and the 50% effective concentration (EC50) was less than 2 nM. Besides, in assay [2], the “THRα Emax” value is listed as “A (85~110)” and the EC50 is less than 2 nM.

With `CS(=O)(=O)c1cc(Oc2c(Cl)cc(-n3nc(C(F)F)c(=O)[nH]c3=O)cc2Cl)ccc1O` [Compound 95], in assay [1], the “THRβ Emax” value is “A (90~110)” and the EC50 was less than 2 nM. Besides, in assay [2], the “THRα Emax” value is “A (85~110)” and the EC50 was less than 2 nM.

Turning to `NS(=O)(=O)c1cc(Oc2c(Cl)cc(-n3nc(C(F)F)c(=O)[nH]c3=O)cc2Cl)ccc1O` [Compound 68, 5-[2,6-dichloro-4-[6-(difluoromethyl)-3,5-dioxo-1,2,4-triazin-2-yl]phenoxy]-2-hydroxy-benzene sulfonamide], in assay [1], the “THRβ Emax” value is “B (75~90)” and the EC50 fell in the range of 2 to 20 nM. In addition, in assay [2], the “THRα Emax” value is on record as “A (85~110)” and the EC50 was 2 to 200 nM.

`O=c1[nH]c(=O)n(-c2cc(Cl)c(Oc3ccc(O)c(S(=O)(=O)NC4CC4)c3)c(Cl)c2)nc1C(F)(F)F` [Compound 19, N-cyclopropyl-5-[2,6-dichloro-4-[3,5-dioxo-6-(trifluoromethyl)-1,2,4-triazin-2-yl]phenoxy]-2-hydroxy-benzenesulfonamide]: in assay [1], the “THRβ Emax” value is given as “A (90~110)” and the EC50 is less than 2 nM. Besides, in assay [2], the “THRα Emax” value is “A (85~110)” and the EC50 is 2 to 200 nM.

For the compound `O=C(NC1CCC1)c1cc(Oc2c(Cl)cc(-n3nc(C(F)(F)F)c(=O)[nH]c3=O)cc2Cl)ccc1O` [Compound 5, N-cyclobutyl-5-(2,6-dichloro-4-(3,5-dioxo-6-(trifluoromethyl)-4,5-dihydro-1,2,4-triazin-2(3H)-yl)phenoxy)-2-hydroxybenzamide], in assay [1], the “THRβ Emax” value is given as “A (90~110)” and the EC50 lay in the range of 20 to 100 nM. In assay [2], the “THRα Emax” value is “B (40~85)” and the concentration for a half-maximal effect (EC50) is greater than 1000 nM.

Broadly, the EC50 is the concentration needed to bring the measured effect to its halfway point.

The values are drawn from patent US12291518B2, “Thyroid hormone receptor agonists and use thereof” (Eccogene Inc., priority 2020, dated 2025).
